Assay results as given in ChEMBL document CHEMBL4665787, “Bifunctional and Unusual Amino Acid β- or γ-Ester Prodrugs of Nucleoside Analogues for Improved Affinity to ATB and Enhanced Metabolic Stability: An Application to Floxuridine” (J Med Chem, 2020).
Calls of active or inactive are those of the source. No cut-off for these calls is given here.

Experiments:
[1] = Cmax in NOD SCID nude mouse plasma xenografted with ZR-75-1 cells assessed as floxuridine; 5-fluoro-2-deoxyuridine concentration at 90 mg/kg, iv measured up to 24 hrs by HPLC-MS/MS analysis; format: ADME, organism-based; parameters: route intravenous, dose 90 mg/kg, time <=24; conditions: in vivo
[2] = Drug uptake in MDCK cells incubated for 10 mins by HPLC analysis; format: ADME, cell-based, Canis lupus familiaris; conditions: dog, 500 µM, dose 0.5 mM
MIA PaCa-2 [3] = assay: Antitumour activity against human MIA-PaCa-2 cells xenografted in NOD SCID nude mouse assessed as tumour inhibition at 90 mg/kg, iv administered for 20 days measured every 2 day by caliper method relative to control; format: functional; conditions: MIA PaCa-2, iv, 480 h, time 20 day
[4] = Half life of compound in human MDA-MB-231 cell homogenate; format: ADME, tissue-based
[5] = AUC (0 to t) in NOD SCID nude mouse plasma xenografted with ZR-75-1 cells at 90 mg/kg, iv measured up to 24 hrs by HPLC-MS/MS analysis; format: ADME, organism-based; parameters: route intravenous, dose 90 mg/kg, time <=24
[6] = target: T1, Sodium- and chloride-dependent neutral and basic amino acid transporter B(0+) (Homo sapiens) (UniProt Q9UN76); assay: Substrate activity at SLC6A14 (unknown origin) expressed in Xenopus laevis oocytes assessed as inhibition of drug uptake at 0.5 mM incubated for 10 mins in presence of glycine by HPLC analysis relative to control; format: cell-based; conditions: Oocyte
T1 sequence (whole entry): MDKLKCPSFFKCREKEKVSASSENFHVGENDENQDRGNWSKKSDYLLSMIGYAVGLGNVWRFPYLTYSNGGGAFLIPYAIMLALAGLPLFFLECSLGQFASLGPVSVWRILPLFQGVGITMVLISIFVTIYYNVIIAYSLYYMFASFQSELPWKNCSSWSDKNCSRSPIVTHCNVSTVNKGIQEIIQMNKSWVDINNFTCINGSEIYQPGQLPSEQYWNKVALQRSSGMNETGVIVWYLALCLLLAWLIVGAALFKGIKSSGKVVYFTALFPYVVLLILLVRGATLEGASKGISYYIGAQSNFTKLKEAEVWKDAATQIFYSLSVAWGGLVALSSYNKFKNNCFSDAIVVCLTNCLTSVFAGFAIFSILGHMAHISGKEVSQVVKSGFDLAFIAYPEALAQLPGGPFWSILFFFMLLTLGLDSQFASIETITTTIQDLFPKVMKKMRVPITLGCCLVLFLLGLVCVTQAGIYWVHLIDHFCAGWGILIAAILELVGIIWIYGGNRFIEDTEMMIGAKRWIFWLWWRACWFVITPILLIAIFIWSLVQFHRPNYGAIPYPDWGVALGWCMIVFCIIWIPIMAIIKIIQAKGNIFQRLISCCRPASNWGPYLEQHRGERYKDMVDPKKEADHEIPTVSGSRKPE

[7] = Toxicity in NOD SCID nude mouse xenografted with human ZR-75-1 cells assessed as body weight at 90 mg/kg, iv for 20 days (reference value: 29.2 +/- 2.5g); format: organism-based; conditions: in vivo, 480 h, time 20 day
[8] = target: T1, Sodium- and chloride-dependent neutral and basic amino acid transporter B(0+) (Homo sapiens); assay: Substrate activity at SLC6A14 (unknown origin) expressed in Xenopus laevis oocytes assessed as increase in ABT0+ mediated drug uptake at 1 mM in presence of Na+ ion by HPLC analysis; format: cell-based; conditions: Oocyte
[9] = target: T2, Sodium- and chloride-dependent neutral and basic amino acid transporter B(0+) (Homo sapiens, UniProt Q9UN76); assay: Substrate activity at SLC6A14 (unknown origin) expressed in Xenopus laevis oocytes assessed as ABT0+ mediated drug uptake at 0.5 mM incubated for 10 mins by HPLC analysis; format: ADME, cell-based; conditions: oocyte, 500 µM
T2 sequence (Q9UN76 whole entry): T1 sequence (whole entry)

[10] = Toxicity in NOD SCID nude mouse xenografted with human MIA PaCa-2 cells assessed as body weight at 90 mg/kg, iv for 20 days (reference value: 28.4 +/- 2.1g); format: organism-based; conditions: in vivo, 480 h, time 20 day
MIA PaCa-2 [11] = assay: Potency index, ratio of FUdR GI50 to test compound GI50 for growth inhibition of human MIA-PaCa-2 cells; format: functional
[12] = Selectivity ratio of substrate activity at PEPT1 (unknown origin) expressed in MDCK cells assessed as PEPT1 mediated drug uptake to drug uptake in MDCK cells
[13] = target: T3, Solute carrier family 15 member 1 (Homo sapiens, UniProt P46059); assay: Substrate activity at PEPT1 (unknown origin) expressed in MDCK cells assessed as PEPT1 mediated drug uptake at 0.5 mM incubated for 10 mins by HPLC analysis; format: ADME, cell-based; conditions: 500 µM
T3 sequence (P46059 whole entry): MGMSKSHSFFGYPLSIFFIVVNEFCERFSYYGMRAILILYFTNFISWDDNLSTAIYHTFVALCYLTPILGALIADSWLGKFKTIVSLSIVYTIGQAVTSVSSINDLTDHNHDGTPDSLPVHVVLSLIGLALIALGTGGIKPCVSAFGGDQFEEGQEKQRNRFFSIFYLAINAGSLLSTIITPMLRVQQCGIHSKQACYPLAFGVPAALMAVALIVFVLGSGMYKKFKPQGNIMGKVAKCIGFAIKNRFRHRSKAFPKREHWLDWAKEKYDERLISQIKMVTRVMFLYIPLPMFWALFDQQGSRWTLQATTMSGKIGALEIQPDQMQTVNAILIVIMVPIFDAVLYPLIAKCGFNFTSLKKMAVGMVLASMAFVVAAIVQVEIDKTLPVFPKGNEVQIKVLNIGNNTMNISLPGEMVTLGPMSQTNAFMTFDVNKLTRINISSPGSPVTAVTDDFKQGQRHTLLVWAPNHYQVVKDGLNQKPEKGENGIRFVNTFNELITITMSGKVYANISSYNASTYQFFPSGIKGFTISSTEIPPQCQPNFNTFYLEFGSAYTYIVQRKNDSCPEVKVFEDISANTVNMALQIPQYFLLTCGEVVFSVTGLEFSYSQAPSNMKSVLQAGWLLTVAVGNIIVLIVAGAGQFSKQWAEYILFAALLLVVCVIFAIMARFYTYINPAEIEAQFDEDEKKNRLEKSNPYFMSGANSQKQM

[14] = AUC (0 to t) in NOD SCID nude mouse tumour xenografted with ZR-75-1 cells assessed as floxuridine; 5-fluoro-2-deoxyuridine AUC at 90 mg/kg, iv measured up to 24 hrs by HPLC-MS/MS analysis; format: ADME, organism-based, Neoplasm; conditions: in vivo

## N[C@@H](CC(=O)OC[C@H]1O[C@@H](n2cc(F)c(=O)[nH]c2=O)C[C@@H]1O)C(=O)O
[1]
  Cmax: 145.9 ng/mL
[2]
  Drug uptake: < 0.04 nmol/mg/min
MIA PaCa-2 [3]
  inhibition in vivo at 90 mg/kg: 62.4%
[4]
  half-life: 11.1 min
[5]
  AUC(0-t) at 24 h: 5070 ng·h/mL
[6]
  inhibition: 50%
[7]
  Activity: 26.8 g
[8]
  Activity: Active
[9]
  Drug uptake: 2.97 nmol/mg/min
[10]
  Activity: 26.3 g
MIA PaCa-2 [11]
  RatioGI50: 7
[12]
  Ratio: 1
[13]
  Drug uptake: < 0.04 nmol/mg/min
[14]
  AUCt: 4600.1 ng·h/g
